# From paper PMC3147153 (Clinical cancer research : an official journal of the …, 2009)
# Where two headings read alike, the source gives them in different places.
# What was measured:
# human tumor cell lines = settings: cited from earlier work
# [1] = tested on: target lesions (solid tumors); experiment: Tumor response by Response Evaluation Criteria in Solid Tumors; assay type: in vivo, patients
# [2] = i.v. daily for 5 days every 2 weeks; ref 14 (Mita et al.); cited from earlier work
# Laboratory variables = assay type: in vivo; settings: patients who received at least three doses; 95% CI −22.1 to −2.6
# CYP3A4 = settings: in vitro; ref studies done by Ariad Pharmaceuticals; cited from earlier work
# [3] = Phase I dose escalation: safety, tolerability, MTD, DLT and adverse events
# xenografts = settings: cited from earlier work
# CYP3A5 = settings: in vitro; ref studies done by Ariad Pharmaceuticals; cited from earlier work
# [4] = Whole blood pharmacokinetics, LC-MS/MS, noncompartmental analysis; assay type: in vivo, patients; settings: for half-life / AUC / Cmax / Vd / clearance: human, whole blood
# [5] = in vivo
# [6] = tested on: 4E-BP1 phosphorylated at Ser^65/Thr^70; experiment: 4E-BP1 phosphorylation in peripheral blood mononuclear cells; assay type: in vivo, patients; settings: PBMC, 7 days after infusion, all doses
# [7] = two multiple-dose toxicology studies in rats; ref nonclinical studies; cited from earlier work
# [8] = dose level 6.25 mg, 2 patients entered
# [9] = dose level 12.5 mg, 3 patients entered
# [10] = dose level 25 mg, 4 patients entered
# [11] = dose level 50 mg, 16 patients entered
# [12] = dose level 75 mg, 17 patients entered
# [13] = dose level 100 mg, 4 patients entered
structure (smiles),measurement,setting,value
CO[C@H]1C[C@@H]2CC[C@@H](C)[C@@](O)(O2)C(=O)C(=O)N2CCCC[C@H]2C(=O)O[C@H]([C@H](C)C[C@@H]2CC[C@@H](OP(C)(C)=O)[C@H](OC)C2)CC(=O)[C@H](C)/C=C(\C)[C@@H](O)[C@@H](OC)C(=O)[C@H](C)C[C@H](C)/C=C/C=C/C=C/1C [deforolimus],effect on proliferation of human tumor cell lines,human tumor cell lines,inhibits proliferation
same,patients with disease progression,"[1]; 34 evaluable, after two cycles",12 patients
same,patients with stable disease,"[1]; 34 evaluable, after two cycles",21 patients
same,patients with partial response,[1]; 34 patients evaluable for response,1 patient
same,"correlation r, AUC versus percent change in sum of target lesions","[1]; after two cycles, n = 32, P = 0.015",−0.43
same,"correlation r, dose versus percent change in sum of target lesions","[1]; after two cycles, n = 33, P = 0.28",−0.19
same,shrinkage in target lesions,"[1]; one patient with transitional cell carcinoma of the bladder, after two cycles",34%
same,incidence of hypercholesterolemia,[2],28%
same,incidence of hyperglycemia,[2],28%
same,incidence of hypertriglyceridemia,[2],41%
same,estimated slope of nadir platelet count versus dose,Laboratory variables,−12.3 × 10^3/μL per 10 mg increase i
same,metabolism by CYP3A4,CYP3A4,primarily metabolized by CYP3A4
same,"Abdominal pain, number of adverse events, any grade",[3]; 6.25 mg (n = 2),0
same,"Anemia, number of adverse events, any grade",[3]; 6.25 mg (n = 2),0
same,"Anorexia, number of adverse events, any grade",[3]; 6.25 mg (n = 2),2
same,"Constipation, number of adverse events, any grade",[3]; 6.25 mg (n = 2),1
same,"Cough, number of adverse events, any grade",[3]; 6.25 mg (n = 2),0
same,"Diarrhea, number of adverse events, any grade",[3]; 6.25 mg (n = 2),1
same,"Dysgeusia, number of adverse events, any grade",[3]; 6.25 mg (n = 2),1
same,"Fatigue, number of adverse events, any grade",[3]; 6.25 mg (n = 2),2
same,"Hyperglycemia, number of adverse events, any grade",[3]; 6.25 mg (n = 2),0
same,"Hypophosphatemia, number of adverse events, any grade",[3]; 6.25 mg (n = 2),0
same,"Mucosal inflammation, number of adverse events, any grade",[3]; 6.25 mg (n = 2),0
same,"Anemia, number of adverse events, any grade",[3]; 12.5 mg (n = 3),1
same,"Anorexia, number of adverse events, any grade",[3]; 12.5 mg (n = 3),2
same,"Constipation, number of adverse events, any grade",[3]; 12.5 mg (n = 3),2
same,"Cough, number of adverse events, any grade",[3]; 12.5 mg (n = 3),0
same,"Diarrhea, number of adverse events, any grade",[3]; 12.5 mg (n = 3),2
same,"Dysgeusia, number of adverse events, any grade",[3]; 12.5 mg (n = 3),0
same,"Fatigue, number of adverse events, any grade",[3]; 12.5 mg (n = 3),2
same,"Hyperglycemia, number of adverse events, any grade",[3]; 12.5 mg (n = 3),0
same,"Hypophosphatemia, number of adverse events, any grade",[3]; 12.5 mg (n = 3),0
same,"Mucosal inflammation, number of adverse events, any grade",[3]; 12.5 mg (n = 3),1
same,"Abdominal pain, number of adverse events, any grade",[3]; 25 mg (n = 4),0
same,"Anemia, number of adverse events, any grade",[3]; 25 mg (n = 4),1
same,"Anorexia, number of adverse events, any grade",[3]; 25 mg (n = 4),4
same,"Constipation, number of adverse events, any grade",[3]; 25 mg (n = 4),2
same,"Cough, number of adverse events, any grade",[3]; 25 mg (n = 4),0
same,"Diarrhea, number of adverse events, any grade",[3]; 25 mg (n = 4),2
same,"Dysgeusia, number of adverse events, any grade",[3]; 25 mg (n = 4),0
same,"Fatigue, number of adverse events, any grade",[3]; 25 mg (n = 4),3
same,"Hyperglycemia, number of adverse events, any grade",[3]; 25 mg (n = 4),0
same,"Hypophosphatemia, number of adverse events, any grade",[3]; 25 mg (n = 4),0
same,"Mucosal inflammation, number of adverse events, any grade",[3]; 25 mg (n = 4),1
same,"Anemia, number of adverse events grade 3 or 4",[3]; 50 mg (n = 16),1
same,"Anemia, number of adverse events, any grade",[3]; 50 mg (n = 16),5
same,"Dysgeusia, number of adverse events, any grade",[3]; 50 mg (n = 16),3
same,"Hyperglycemia, number of adverse events grade 3 or 4",[3]; 50 mg (n = 16),2
same,"Hyperglycemia, number of adverse events, any grade",[3]; 50 mg (n = 16),5
same,"Hypophosphatemia, number of adverse events grade 3 or 4",[3]; 50 mg (n = 16),3
same,"Hypophosphatemia, number of adverse events, any grade",[3]; 50 mg (n = 16),4
same,patients discontinued from the study due to adverse events,[3]; 50 mg dose level,3 patients
same,"Abdominal pain, number of adverse events grade 3 or 4",[3]; 75 mg (n = 17),1
same,"Abdominal pain, number of adverse events, any grade",[3]; 75 mg (n = 17),5
same,"Cough, number of adverse events, any grade",[3]; 75 mg (n = 17),3
same,"Hyperglycemia, number of adverse events grade 3 or 4",[3]; 75 mg (n = 17),4
same,"Hyperglycemia, number of adverse events, any grade",[3]; 75 mg (n = 17),5
same,"Mucosal inflammation, number of adverse events, any grade",[3]; 75 mg (n = 17),12
same,patients discontinued from the study due to adverse events,[3]; 75 mg dose level,3 patients
same,patients who developed grade 1 to 2 mucositis,[3]; 75 mg dose level (17 patients),Twelve
same,"Abdominal pain, number of adverse events grade 3 or 4",[3]; 100 mg (n = 4),1 (1)
same,"Abdominal pain, number of adverse events, any grade",[3]; 100 mg (n = 4),1 (1)
same,"Anemia, number of adverse events, any grade",[3]; 100 mg (n = 4),1
same,"Anorexia, number of adverse events, any grade",[3]; 100 mg (n = 4),3
same,"Constipation, number of adverse events, any grade",[3]; 100 mg (n = 4),3
same,"Cough, number of adverse events, any grade",[3]; 100 mg (n = 4),1
same,"Diarrhea, number of adverse events, any grade",[3]; 100 mg (n = 4),2
same,"Dysgeusia, number of adverse events, any grade",[3]; 100 mg (n = 4),1
same,"Fatigue, number of adverse events, any grade",[3]; 100 mg (n = 4),3
same,"Hyperglycemia, number of adverse events, any grade",[3]; 100 mg (n = 4),0
same,"Hypophosphatemia, number of adverse events grade 3 or 4",[3]; 100 mg (n = 4),1 (1)
same,"Hypophosphatemia, number of adverse events, any grade",[3]; 100 mg (n = 4),1 (1)
same,"Mucosal inflammation, number of adverse events grade 3 or 4",[3]; 100 mg (n = 4),1
same,"Mucosal inflammation, number of adverse events, any grade",[3]; 100 mg (n = 4),4
same,patients who required dosing delays and/or dose reduction secondary to mucositis,[3]; 100 mg dose level,3 of 4
same,patients who experienced mucositis,[3]; 100 mg dose level (4 patients),4 patients
same,patients with mucositis grade ≥3,[3]; 100 mg dose level (4 patients),1 patients
same,patients who experienced an adverse event grade ≥3,[3]; all 46 patients,70%
same,patients who required interruption of treatment or dose reduction on at least one occasion,[3]; all 46 patients,Twenty-eight
same,deaths thought to be related to deforolimus,[3]; all patients,no deaths thought to be related to deforolimus
same,patients with serious adverse events,[3]; all patients,22 patients
same,serious adverse events,[3]; all patients,Thirty-two
same,incidence of hypercholesterolemia,"[3]; all patients, weekly schedule",7%
same,incidence of hyperglycemia,"[3]; all patients, weekly schedule",22%
same,incidence of hypertriglyceridemia,"[3]; all patients, weekly schedule",9%
same,No. patients requiring dose interruptions or reductions,[3]; [8],0
same,No. patients requiring dose reductions,[3]; [8],0
same,"No. patients requiring dose interruptions or reductions, at least possibly related to deforolimus",[3]; dose level 12.5 mg,0
same,No. patients requiring dose interruptions or reductions,[3]; [9],2
same,No. patients requiring dose reductions,[3]; [9],0
same,"No. patients requiring dose interruptions or reductions, at least possibly related to deforolimus",[3]; dose level 25 mg,0
same,No. patients requiring dose interruptions or reductions,[3]; [10],3
same,No. patients requiring dose reductions,[3]; [10],0
same,"No. patients requiring dose interruptions or reductions, at least possibly related to deforolimus",[3]; dose level 50 mg,5
same,No. patients requiring dose interruptions or reductions,[3]; [11],8
same,No. patients requiring dose reductions,[3]; [11],3
same,"No. patients requiring dose interruptions or reductions, at least possibly related to deforolimus",[3]; dose level 75 mg,9
same,No. patients requiring dose interruptions or reductions,[3]; [12],12
same,No. patients requiring dose reductions,[3]; [12],2
same,"No. patients requiring dose interruptions or reductions, at least possibly related to deforolimus",[3]; dose level 100 mg,3 (3)
same,No. patients requiring dose interruptions or reductions,[3]; [13],3 (3)
same,No. patients requiring dose reductions,[3]; [13],2
same,main dose-limiting toxicity (DLT),[3]; i.v. once weekly,mucositis
same,maximum tolerated dose (MTD),"[3]; i.v. over 30 min every 7 days, flat dosing",75 mg
same,"treatment discontinuations thought to be possibly, probably or definitely related to the study drug",[3]; of six patients with treatment discontinued,4 patients
same,factor of increase in odds of more severe mucositis per 10 mg increase in dose,"[3]; proportional odds model, univariate, 95% CI 1.21–2.07",1.58
same,effect on proliferation of xenografts,xenografts,inhibits proliferation
same,metabolism by CYP3A5,CYP3A5,to a lesser extent
same,dose proportionality of AUC,[4]; dose range 6.25 to 100 mg,increased less than proportionally with an increase in dose
same,dose proportionality of Cmax,[4]; dose range 6.25 to 100 mg,increased less than proportionally with an increase in dose
same,half-life,[4]; intravenous,45 to 52 h
same,AUC,"[4]; iv, 6.25 mg",3800 ng·h/mL
same,Cmax,"[4]; iv, 6.25 mg",329 ng/mL
same,Vd,"[4]; iv, 6.25 mg",80.3 L
same,clearance,"[4]; iv, 6.25 mg",28.3 mL/min
same,half-life,"[4]; iv, 6.25 mg",52.2 h
same,AUC,"[4]; iv, 12.5 mg",5100 ng·h/mL
same,Cmax,"[4]; iv, 12.5 mg",394 ng/mL
same,Vd,"[4]; iv, 12.5 mg",111 L
same,clearance,"[4]; iv, 12.5 mg",45 mL/min
same,AUC,"[4]; iv, 25 mg",9000 ng·h/mL
same,Cmax,"[4]; iv, 25 mg",570 ng/mL
same,Vd,"[4]; iv, 25 mg",136 L
same,clearance,"[4]; iv, 25 mg",48.3 mL/min
same,half-life,"[4]; iv, 25 mg",46.2 h
same,AUC,"[4]; iv, 50 mg",10700 ng·h/mL
same,Cmax,"[4]; iv, 50 mg",982 ng/mL
same,Vd,"[4]; iv, 50 mg",235 L
same,clearance,"[4]; iv, 50 mg",81.7 mL/min
same,half-life,"[4]; iv, 50 mg",44.9 h
same,AUC,"[4]; iv, 75 mg",12700 ng·h/mL
same,Cmax,"[4]; iv, 75 mg",1200 ng/mL
same,Vd,"[4]; iv, 75 mg",323 L
same,clearance,"[4]; iv, 75 mg",107 mL/min
same,half-life,"[4]; iv, 75 mg",47.3 h
same,AUC,"[4]; iv, 100 mg",13400 ng·h/mL
same,Cmax,"[4]; iv, 100 mg",1260 ng/mL
same,Vd,"[4]; iv, 100 mg",373 L
same,clearance,"[4]; iv, 100 mg",128 mL/min
same,half-life,"[4]; iv, 100 mg",46 h
same,"clearance difference, greater in females, estimated from the model","[4]; regression model with dose and gender, SE 0.41",1.49 L/h
same,"Abdominal pain, number of adverse events, any grade",[5]; human,14
same,"Nausea, number of adverse events, any grade",[5]; human,26
same,"Rash, number of adverse events, any grade",[5]; human,22
same,incidence of anorexia,[5]; human,67%
same,incidence of diarrhea,[5]; human,50%
same,incidence of fatigue,[5]; human,76%
same,incidence of mucositis,[5]; human,63%
same,incidence of nausea,[5]; human,57%
same,patients who experienced an adverse event,[5]; human,46 patients
same,tolerability of the dose level,[5],intolerable
same,median inhibition of 4E-BP1 phosphorylation,[6],> 70%
same,no effect dose level / severely toxic dose level,[7],neither a no effect dose level nor a severely toxic dose level was identified
